Measurements published in ChEMBL document CHEMBL4118237 (Bioorg Med Chem, 2018).
pEC50, pKi: −log10 of the molar value. The source made the active and inactive calls. No cut-off for these calls is given here. *1 amine or outer side, *2 acyl side, *3 side chain or, on linkers, in order; H or OH if unused. Where a SMILES comes first, the peptide text is derived from it. Bridges are numbered along the chain shown (N, C = ends). Roman numbers before positions name the chains, in order. [ ]: non-standard residue; d: D form. Piperazine(1,4-diyl) = C1CN([*:2])CCN1[*:1]; Dmt = Cc1cc(O)cc(C)c1C[C@H](N)C(=O)O; Cystamine = C(CSSCCN[*:2])N[*:1]

Columns and labels:
[1] = target: T1, Delta-type opioid receptor (Homo sapiens, UniProt P41143); test: Agonist activity at DOR (unknown origin) expressed in HEK cells assessed as reduction in cAMP accumulation by split luciferase assay relative to DADLE; type: functional, cell-based
T1 sequence (P41143 whole entry): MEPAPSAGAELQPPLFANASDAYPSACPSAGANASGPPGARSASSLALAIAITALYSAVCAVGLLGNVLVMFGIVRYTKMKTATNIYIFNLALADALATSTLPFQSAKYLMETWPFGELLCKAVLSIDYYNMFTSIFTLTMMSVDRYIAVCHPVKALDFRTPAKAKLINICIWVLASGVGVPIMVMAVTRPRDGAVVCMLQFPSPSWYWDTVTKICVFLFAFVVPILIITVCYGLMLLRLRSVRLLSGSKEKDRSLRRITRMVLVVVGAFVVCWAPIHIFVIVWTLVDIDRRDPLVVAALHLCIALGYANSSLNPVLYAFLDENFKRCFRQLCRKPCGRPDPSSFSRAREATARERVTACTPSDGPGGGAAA

[2] = target: T2, Kappa-type opioid receptor (Homo sapiens, UniProt P41145); test: Displacement of [3H]U69593 from KOR (unknown origin) expressed in HEK cells; type: cell-based
T2 sequence (P41145 whole entry): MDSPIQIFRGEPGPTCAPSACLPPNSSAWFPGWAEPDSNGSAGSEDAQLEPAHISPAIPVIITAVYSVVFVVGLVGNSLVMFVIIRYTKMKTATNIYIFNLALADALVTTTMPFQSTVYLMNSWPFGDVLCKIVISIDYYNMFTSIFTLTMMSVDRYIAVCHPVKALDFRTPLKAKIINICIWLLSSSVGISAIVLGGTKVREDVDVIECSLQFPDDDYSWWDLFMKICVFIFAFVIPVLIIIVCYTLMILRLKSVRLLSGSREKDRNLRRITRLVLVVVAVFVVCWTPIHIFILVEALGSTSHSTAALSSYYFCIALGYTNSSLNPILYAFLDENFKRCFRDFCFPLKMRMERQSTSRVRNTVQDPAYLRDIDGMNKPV

[3] = target: T1, Delta-type opioid receptor; test: Displacement of [3H]DADLE from DOR (unknown origin) expressed in HEK cells; type: cell-based
Mu-type opioid receptor [4] = target: T3, Mu-type opioid receptor (Homo sapiens, UniProt P35372); test: Agonist activity at MOR (unknown origin) expressed in HEK cells assessed as reduction in cAMP accumulation by split luciferase assay relative to DAMGO; type: functional, cell-based
T3 sequence (P35372 whole entry): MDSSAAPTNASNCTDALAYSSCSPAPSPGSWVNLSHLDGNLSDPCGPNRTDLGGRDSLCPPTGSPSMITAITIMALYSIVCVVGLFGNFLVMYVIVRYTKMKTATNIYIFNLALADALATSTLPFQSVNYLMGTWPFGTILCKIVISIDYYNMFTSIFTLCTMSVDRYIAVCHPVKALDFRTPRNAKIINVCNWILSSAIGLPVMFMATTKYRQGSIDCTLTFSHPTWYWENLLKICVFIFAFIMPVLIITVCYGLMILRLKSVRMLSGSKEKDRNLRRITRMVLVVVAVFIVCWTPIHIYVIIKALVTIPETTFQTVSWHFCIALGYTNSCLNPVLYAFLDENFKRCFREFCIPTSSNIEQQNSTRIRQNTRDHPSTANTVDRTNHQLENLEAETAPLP

Mu-type opioid receptor [5] = target: T3, Mu-type opioid receptor; test: Antagonist activity at MOR (unknown origin) expressed in HEK cells assessed as cAMP accumulation by split luciferase assay; type: functional, cell-based
[6] = target: T2, Kappa-type opioid receptor; test: Agonist activity at KOR (unknown origin) expressed in HEK cells assessed as reduction in cAMP accumulation by split luciferase assay relative to salvinorin A; type: functional, cell-based
[7] = target: T1, Delta-type opioid receptor; test: Agonist activity at DOR (unknown origin) expressed in HEK cells assessed as reduction in cAMP accumulation by split luciferase assay; type: functional, cell-based; details: for pEC50: read-out: EC50
Mu-type opioid receptor [8] = target: T3, Mu-type opioid receptor; test: Agonist activity at MOR (unknown origin) expressed in HEK cells assessed as reduction in cAMP accumulation by split luciferase assay; type: functional, cell-based
Mu-type opioid receptor [9] = target: T3, Mu-type opioid receptor; test: Displacement of [3H]DAMGO from MOR (unknown origin) expressed in HEK cells; type: cell-based
[10] = target: T2, Kappa-type opioid receptor; test: Antagonist activity at KOR (unknown origin) expressed in HEK cells assessed as cAMP accumulation by split luciferase assay; type: functional, cell-based
[11] = target: T1, Delta-type opioid receptor; test: Antagonist activity at DOR (unknown origin) expressed in HEK cells assessed as cAMP accumulation by split luciferase assay; type: functional, cell-based
[12] = target: T2, Kappa-type opioid receptor; test: Agonist activity at KOR (unknown origin) expressed in HEK cells assessed as reduction in cAMP accumulation by split luciferase assay; type: functional, cell-based
[13] = target: T2, Kappa-type opioid receptor; test: Binding affinity to KOR (unknown origin)

SMILES	Emax [1]	pKi [2]	pKi [3]	Emax (Mu-type opioid receptor [4])	Activity (Mu-type opioid receptor [5])	Emax [6]	pEC50 [7]	pEC50 (Mu-type opioid receptor [8])	pKi (Mu-type opioid receptor [9])	Activity [10]	Activity [11]	pEC50 [12]	EC50 ([7]; read-out: pEC50 (converted))	pKi [13]
N[C@@H](Cc1ccc(O)cc1)C(=O)N[C@@H]1CSSC[C@@H](NC(=O)[C@@H](N)Cc2ccc(O)cc2)C(=O)NCC(=O)N[C@@H](Cc2ccccc2)C(=O)N2CCN(CC2)C(=O)[C@H](Cc2ccccc2)NC(=O)CNC1=O (HELM PEPTIDE1{Y.[dC].G.F}|PEPTIDE2{Y.[dC].G.F}|CHEM1{[C1CN([*:2])CCN1[*:1]]}$PEPTIDE1,PEPTIDE2,2:R3-2:R3|PEPTIDE1,CHEM1,4:R2-1:R1|PEPTIDE2,CHEM1,4:R2-1:R2$$$V2.0)	77%	7.72	7.57	54%	inactive	92%	6.61	6.29	8.05	inactive	inactive	6.47		
Cc1cc(O)cc(C)c1C[C@H](N)C(=O)N[C@@H]1CSSC[C@@H](NC(=O)[C@@H](N)Cc2c(C)cc(O)cc2C)C(=O)NCC(=O)N[C@@H](Cc2ccccc2)C(=O)NCCSSCCNC(=O)[C@H](Cc2ccccc2)NC(=O)CNC1=O (I: H-[Dmt][dC]GF / II: H-[Dmt][dC]GF; disulfide I:2-II:2; linker I:C-II:C via Cystamine)	106%	9.06	9.34	119%	inactive	98%	8.84	8.46	9.57	inactive	inactive	7.87		
Cc1cc(O)cc(C)c1C[C@H](N)C(=O)N[C@@H]1CSSC[C@@H](NC(=O)[C@@H](N)Cc2c(C)cc(O)cc2C)C(=O)NCC(=O)N[C@@H](Cc2ccccc2)C(=O)N2CCN(CC2)C(=O)[C@H](Cc2ccccc2)NC(=O)CNC1=O (I: H-[Dmt][dC]GF / II: H-[Dmt][dC]GF; disulfide I:2-II:2; linker I:C-II:C via Piperazine(1,4-diyl))	90%	8.31	8.70	58%	inactive	82%	6.93	6.95	8.60	inactive	inactive	7.20	11.7 nM	
CC1(C)SSC(C)(C)[C@H](NC(=O)[C@@H](N)Cc2ccc(O)cc2)C(=O)NCC(=O)N[C@@H](Cc2ccccc2)C(=O)N2CCN(CC2)C(=O)[C@H](Cc2ccccc2)NC(=O)CNC(=O)[C@H]1NC(=O)[C@@H](N)Cc1ccc(O)cc1 (HELM PEPTIDE1{Y.[Pen].G.F}|PEPTIDE2{Y.[Pen].G.F}|CHEM1{[C1CN([*:2])CCN1[*:1]]}$PEPTIDE1,PEPTIDE2,2:R3-2:R3|PEPTIDE1,CHEM1,4:R2-1:R1|PEPTIDE2,CHEM1,4:R2-1:R2$$$V2.0)	206%			86%	inactive	62%				inactive	inactive			
N[C@@H](Cc1ccc(O)cc1)C(=O)N[C@@H]1CSSC[C@@H](NC(=O)[C@@H](N)Cc2ccc(O)cc2)C(=O)NCC(=O)N[C@@H](Cc2ccccc2)C(=O)NCCSSCCNC(=O)[C@H](Cc2ccccc2)NC(=O)CNC1=O (HELM PEPTIDE1{Y.[dC].G.F}|PEPTIDE2{Y.[dC].G.F}|CHEM1{[C(CSSCCN[*:2])N[*:1]]}$PEPTIDE1,PEPTIDE2,2:R3-2:R3|PEPTIDE1,CHEM1,4:R2-1:R1|PEPTIDE2,CHEM1,4:R2-1:R2$$$V2.0)	91%	7.74	8.39	90%	inactive	99%	7.57	7.06	8.62	inactive	inactive	6.87		
C[C@@H](NC(=O)[C@@H](N)Cc1ccc(O)cc1)C(=O)NCC(=O)N[C@@H](Cc1ccccc1)C(=O)NNC(=O)[C@H](Cc1ccccc1)NC(=O)CNC(=O)[C@@H](C)NC(=O)[C@@H](N)Cc1ccc(O)cc1 [BIPHALIN]														6.57
